Data on 1 compound can be found in patent publication US12496304B2, “Selective glucocorticoid receptor modifiers for treating impaired skin wound healing” (AKRIBES BIOMEDICAL GMBH, priority 2019, dated 2025).

For series [1], the system named is full-thickness excisional wounds. Description: Delayed wound healing in a pig model. Type of series: in vivo. The procedure: The animal experiments were approved by governmental authorities. Two young farm pigs (10-12 kg) were anesthetized and full-thickness excisional wounds were developed using a 6 mm biopsy punch. During the first 5 days after wounding, the wounds were stimulated with a) 0.05% R848 (resiquimod) and 50 μl human wound exudate, b) 0.05% R848 and human serum or c) human serum alone. R848 was applied in the mornings and exudate and serum 6 hours later, in 50 μl of solutions gelified by the addition of 2% HPMC. On days 6-10, wounds were treated once daily with mapracorat or vehicle (50% PG/47.5% H2O/0.5% Tween 80/2% HPMC). The wounds were clinically scored daily. The total wound score (maximum score=21) consisted of wound appearance (dry vs. moist), size, wound content, pus, crust, erythema intensity, erythema width, swelling and necrosis. Reported values are individual values for each of the 2 pigs.

For series [2], the target named is T1, glucocorticoid receptor (Homo sapiens, UniProt P04150).
T1 sequence (P04150 1-777): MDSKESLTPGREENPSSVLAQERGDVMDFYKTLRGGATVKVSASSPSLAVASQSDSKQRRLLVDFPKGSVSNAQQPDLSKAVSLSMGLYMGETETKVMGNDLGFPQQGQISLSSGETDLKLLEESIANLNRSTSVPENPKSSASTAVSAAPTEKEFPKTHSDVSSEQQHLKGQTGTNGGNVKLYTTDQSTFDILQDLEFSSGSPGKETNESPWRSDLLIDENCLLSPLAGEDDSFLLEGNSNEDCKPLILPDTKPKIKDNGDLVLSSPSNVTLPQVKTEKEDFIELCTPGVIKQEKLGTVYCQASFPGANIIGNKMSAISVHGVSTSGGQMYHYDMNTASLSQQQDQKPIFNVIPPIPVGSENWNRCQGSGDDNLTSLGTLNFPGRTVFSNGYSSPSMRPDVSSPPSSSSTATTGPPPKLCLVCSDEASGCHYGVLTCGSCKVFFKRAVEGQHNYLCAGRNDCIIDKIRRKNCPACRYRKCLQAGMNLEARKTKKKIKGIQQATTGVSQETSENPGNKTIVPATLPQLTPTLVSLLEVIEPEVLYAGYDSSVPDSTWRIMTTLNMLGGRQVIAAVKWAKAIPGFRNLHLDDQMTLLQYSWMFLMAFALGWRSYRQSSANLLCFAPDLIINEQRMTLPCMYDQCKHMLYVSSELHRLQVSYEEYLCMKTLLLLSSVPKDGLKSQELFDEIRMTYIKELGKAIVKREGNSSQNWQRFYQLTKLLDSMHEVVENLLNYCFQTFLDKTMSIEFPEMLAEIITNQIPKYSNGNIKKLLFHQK
The conditions noted are these: read-out: EC50, potency for glucocorticoid receptor activation; cited from earlier work.

The subject of series [3] is Collagen 3a. Kind of series: mRNA expression in fibroblast cultures (qRT-PCR): collagen 3. Type of series: cell-based, human. The note with it: WE-1, graded concentrations, 72-hour incubation (FIG. 7A). The procedure:
(§1) Cells were seeded into 24-well plates and incubated with compounds in the presence or absence of wound exudates for 72 hours. Total RNA was isolated using the RNeasy Mini Kit (QIAGEN #74106) according to the manufacturer's protocol. RNA integrity and concentration for each sample was confirmed and measured with the Qubit fluorometer. Each RNA sample was then diluted to 2 ng/μl in nuclease-free doubly distilled water.
(§2) 20 ng of total RNA were reverse-transcribed into cDNA and immediately subjected to PCR amplification using the SuperScript Ill Platinum One-Step Quantitative RT-PCR System with ROX (Invitrogen #11745). qRT-PCR amplifications were performed in 20 μl reactions containing 9 μl 2× Reaction Mix with ROX, 0.4 μl SuperScript III RT/Platinum Taq Mix and 1 μl primer (final: 900 nM, Taqman Gene Expression Assay, Applied Biosystems)
(§3) The program included 30 minutes of reverse transcription at 48° C., an initial denaturation for 5 minutes at 95° C. followed by 40 cycles of denaturation at 95° C. for 15 seconds and annealing at 60° C. for 60 seconds. Reactions were set up in 96-well format PCR plates (Peqlab #732-2879) and carried out in a Mx3005P Real-Time PCR Detection System (Stratagene).
(§4) TaqMan Gene Expression Assays (Applied Biosystems) were used, which include preoptimized probe and primer sets specific for the genes being validated. The sequences and ID numbers are listed below:
(§5) The house keeping gene elongation factor 1a (EF1a) was used as a reference gene. Normalized expression was calculated using the comparative Ct (or ΔCt) method, and fold changes were derived from the 2-ΔΔCt values for each gene. Graphs were prepared using relative Ct values that were calculated by subtracting the EF1a Ct values from the corresponding Ct values for the gene being measured.
In general terms: Real-time PCR tracks product formation cycle by cycle.

For series [4], the system named is Collagen 1a. Kind of series: mRNA expression in fibroblast cultures (qRT-PCR): collagen 1. Type of series: cell-based, human. The note with it: WE-1, graded concentrations, 72-hour incubation (FIG. 6A). The method, then:
as §1, §2, §3, §4, §5

In series [5] the test system is IL1β. Description: mRNA expression in fibroblast cultures (qRT-PCR): IL-1β. The format is cell-based, human. The procedure:
as §1
20 ng of total RNA were reverse-transcribed into cDNA and immediately subjected to PCR amplification using the SuperScript Ill Platinum One-Step Quantitative RT-PCR System with ROX (Invitrogen #11745). qRT-PCR amplifications were performed in 20 μl reactions containing 9 μl 2× Reaction Mix with ROX, 0.4 μl SuperScript III RT/Platinum Taq Mix and 1 μl primer (final: 900 nM, Taqman Gene Expression Assay, Applied Biosystems) […]
as §5

For the compound `Cc1ccc2c(NC[C@](O)(CC(C)(C)c3cc(F)cc4c3OCC4)C(F)(F)F)cccc2n1` [Mapracorat], the total wound score result in series [1] (10 mM and 1 mM, once daily days 6-10, WE-01, WE-02 and R848 as inducers of delayed wound healing) is recorded as “reduced the wound score from days 6 to 12”. Besides, the “healing of control wounds” value in series [1] (control wounds in the presence of human serum (FIG. 13D)) is “did not have any negative effect on the healing of control wounds”. For the same compound, in series [2], the EC50 is 1.9 nM. The “collagen 3 mRNA expression” value in series [3] was “at all three concentrations enhanced collagen 3 mRNA expression in the presence of WE”. Moreover, in series [4], the “collagen 1 mRNA expression” value is given as “dose-dependently enhanced collagen 1 mRNA expression in the presence of WE”. Also, the “IL-1β mRNA expression” value in series [5] (WE-1, graded concentrations, 72-hour incubation (FIG. 8A)) is “dose-dependently inhibited IL-1β mRNA expression in the presence of WE”; in series [5] (medium in the absence of WE, 72-hour incubation (FIG. 8B)) it was “no IL-1β induction in medium”.

Broadly, the EC50 is the midpoint of the concentration-response curve.
